What was measured:
[1] = Compound was tested for the inhibitor activity against NAD glycohydrolase.; parameters: species or system Bungarus fasciatus
[2] = target: Poly(ADP-ribose) glycohydrolase (Bos taurus) (UniProt O02776); assay: Inhibitor dissociation constant for the 1/V vs [I] replot.
[3] = Compound was tested for its inhibitory activity against venom NAD glycohydrolase; parameters: species or system Bungarus fasciatus
[4] = target: Poly(ADP-ribose) glycohydrolase (Bos taurus) (UniProt O02776); assay: Kid describes the approach of hyperbolic function to its new limiting value as [I] increases, for the 1/V vs [I] replot.
[5] = target: Poly(ADP-ribose) glycohydrolase (Bos taurus) (UniProt O02776); assay: Inhibitor dissociation constant was determined by the analysis of the slope versus [inhibitor] replot.e.K
[6] = target: Poly(ADP-ribose) glycohydrolase (Bos taurus) (UniProt O02776); assay: Kid describes the approach of hyperbolic function to its new limiting value as [I] increases, for the KM/V vs [I] replot.

Sequence of Poly(ADP-ribose) glycohydrolase (Bos taurus) (O02776 whole entry): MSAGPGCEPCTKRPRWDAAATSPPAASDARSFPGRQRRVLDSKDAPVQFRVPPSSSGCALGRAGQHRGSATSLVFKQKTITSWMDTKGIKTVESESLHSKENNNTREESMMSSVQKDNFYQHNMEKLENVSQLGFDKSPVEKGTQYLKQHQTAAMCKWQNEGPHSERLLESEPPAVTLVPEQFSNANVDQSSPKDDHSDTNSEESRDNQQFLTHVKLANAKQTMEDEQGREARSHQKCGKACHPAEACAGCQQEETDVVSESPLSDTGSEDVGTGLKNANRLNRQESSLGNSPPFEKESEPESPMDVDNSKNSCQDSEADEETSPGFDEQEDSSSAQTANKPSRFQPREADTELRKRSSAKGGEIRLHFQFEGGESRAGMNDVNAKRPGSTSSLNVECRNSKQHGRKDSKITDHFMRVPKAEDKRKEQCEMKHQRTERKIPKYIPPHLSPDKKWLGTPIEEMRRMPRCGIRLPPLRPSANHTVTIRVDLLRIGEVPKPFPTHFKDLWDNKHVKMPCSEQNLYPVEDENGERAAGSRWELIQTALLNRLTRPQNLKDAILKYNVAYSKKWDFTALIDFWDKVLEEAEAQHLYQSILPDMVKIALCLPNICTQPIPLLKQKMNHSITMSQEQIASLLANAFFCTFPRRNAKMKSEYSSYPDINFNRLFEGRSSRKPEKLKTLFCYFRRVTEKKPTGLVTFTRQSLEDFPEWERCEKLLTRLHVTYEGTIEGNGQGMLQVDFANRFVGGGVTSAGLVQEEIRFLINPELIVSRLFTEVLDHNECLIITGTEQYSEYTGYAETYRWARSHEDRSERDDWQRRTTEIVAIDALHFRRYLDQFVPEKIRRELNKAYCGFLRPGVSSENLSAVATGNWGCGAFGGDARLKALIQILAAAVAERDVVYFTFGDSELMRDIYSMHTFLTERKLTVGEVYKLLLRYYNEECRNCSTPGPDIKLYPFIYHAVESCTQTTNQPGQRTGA

Nc1ncnc2c1ncn2[C@@H]1O[C@H](COP(=O)(O)OP(=O)(O)OC[C@H]2NC[C@H](O)[C@@H]2O)[C@@H](O)[C@H]1O [ADENOSINE DIPHOSPHATE (HYDROXYMETHYL)PYRROLIDINEDIOL]
Ki [1]: 94 µM | Kin [2]: 0.052 µM | IC50 [3]: 260 µM | Kid [4]: 0.21 µM | Kin [5]: 0.08 µM | Kid [6]: 0.26 µM

— ChEMBL document CHEMBL1128639, “Mechanism of inhibition of poly(ADP-ribose) glycohydrolase by adenosine diphosphate (hydroxymethyl)pyrrolidinediol” (J Med Chem, 1995)
